Patent US9714247B2, “Multiple kinase pathway inhibitors” (Mannkind Corporation, priority 2012, dated 2017)

What was measured:
DoHH2 = experiment: Apoptosis by flow cytometry (Annexin V / 7AAD); format: cell-based, human; conditions: for Percent Apoptosis DOHH2: Table 5, 6 hours
From the text: Activation of Tec family kinases including BTK, and/or Src kinase family members, regulates cell survival and cell death in normal B cells, lymphomas, and solid tumors. Apoptosis is a programmed cell death characterized by specific changes in cell morphology. […] Staurosporine was used as a positive control for apoptosis. […] Table 6 illustrates that several amino naphthyridinones induce significant apoptosis in DoHH2 cells.

[1] = tested on: PLCγ2 phosphorylation in Ramos cells; experiment: PLCγ2 phosphorylation by flow cytometry; format: cell-based, human
Procedure, shortened: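 Ramos cells starved 18 h in 1% FBS, pretreated with inhibitor 2 h, then stimulated with anti-IgM (10 ug/ml final) plus 3.3 mM H2O2 for 2 min, then cross-linking F(ab) (10 ug/ml) plus H2O2 for 8 min. Fixed, permeabilized cells stained with PE anti-phospho-PLCγ2 (Tyr1217 or Tyr759), dead cells gated out; ED50 from geometric mean fluorescence over four inhibitor concentrations.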

[2] = tested on: PARP cleavage in DoHH-2 cells; experiment: PARP cleavage by Western blotting; format: cell-based, human; conditions: DoHH-2 cells, 2, 6 and 24 hr, low micromolar concentrations
Protocol: Additionally, using an exemplary amino naphthyridinones, Compound 1, […] PARP cleavage has been observed. PARP is downstream of the caspase cascade; its cleavage is an indicator or caspase-dependent apoptosis. PARP cleavage was assessed by Western blotting exponentially growing cultures of DoHH-2 cells that had been cultured overnight (18 h) in 1% FBS containing RPMI1640 media. These cells were washed, counted and plated with and without Compound 1 for 2, 6, and 24 hr. Cells were centrifuged and cell pellets were lysed using RIPA buffer from CST. Protein lysates were quantified using the BCA protein assay kit from Pierce and used in a standard Western blotting procedure. Anti-PARP antibody was obtained from CST and used as per the manufacturer's protocol. […] Thus amino naphthyridinones can be used to induce apoptosis in tumor cells.

[3] = tested on: PLCγ2 phosphorylation in Ramos cells; experiment: PLCγ2 phosphorylation by Western blotting; format: cell-based, human; conditions: anti-IgM/H2O2 stimulation, Tyr1217
Protocol: Ramos cells were cultured in RPMI 1640 media with 10% FBS and were starved overnight (18 h) in 1% FBS containing media and on the next day pretreated with inhibitor for 2 h before stimulation. Cells were stimulated to induce BTK network dependent signal transduction pathways using mouse anti-human IgM (final concentration 10 ug/ml; Invitrogen) antibodies and 3.3 mM H2O2 mixture for 2 minutes followed by F(Ab) fragment that cross-linked the anti-IgM antibody (final concentration 10 ug/ml), and 3.3 mM H2O2 for 8 minutes. Cell lysates were prepared in lysis buffer containing protease and phosphatase inhibitors, quantified using the BCA protein assay kit (Pierce) and used for Western blotting. Antibodies specifically targeted to the molecules of interest, PLCγ2 phosphorylated at Tyr1217 and total PLCγ2, (Cell Signaling Technology) were used in a standard Western blotting procedure.
Phosphorylation of PLCγ2 at Tyr1217 along with Tyr753, Tyr759 and Tyr1197 is correlated with increased PLCγ2 activity. The readout for BTK network signaling was inhibition of phosphorylation of PLCγ2 induced by the anti-IgM treatment.

DoHH-2 tumor xenograft = format: in vivo
[4] = tested on: phosphorylation of SFKs in Ramos cells; experiment: SFK phosphorylation (Tyr 416) by Western blotting; format: cell-based, human; conditions: pretreated 2 hours
Protocol: Ramos cell lysates from stimulated and unstimulated cells were analyzed for the levels of phosphorylated SRC family members. As described in Example 82 (above), cells were pretreated for 2 hours with an amino naphthyridinones and then stimulated with anti-IgM antibody and H2O2, protein lysates were prepared, quantified and used for Western blotting. A commercially available antibody that detects Src phosphorylated at Tyr 416 (Cell Signalling) and may cross-react with other Src family members such as Lyn, Fyn, Lck, Yes and Hck when phosphorylated at equivalent sites was used for Western blot analysis. The molecular weights of SFK family members are quite similar (in the 55-60 kDa range) and different family members cannot be resolved by the conditions used for the Western blot. […] The procedure can be similarly adapted for flow cytometric analysis as with the PLC-γ2 assay in Example 82. Ramos cells were incubated with Compound 1 for 2 hrs in RPMI media with 5% FBS prior to stimulation stimulated with H2O2/anti-IgM/F(Ab) for 10 minutes. Cells were evaluated by FACS analysis using anti-pSRC antibody and FITC-conjugated goat anti-rabbit secondary antibody following overnight storage at 4° C. in BD perm/wash buffer.

PC3 = experiment: Apoptosis by flow cytometry (Annexin V / 7AAD); format: cell-based; conditions: Table 5, 6 hours
Ramos = experiment: Apoptosis by flow cytometry (Annexin V / 7AAD); format: cell-based, human; conditions: Table 5, 6 hours
Src = Src (Homo sapiens (Human), UniProt P12931); conditions: read-out: Src IC50
Src, sequence (P12931 whole entry, looked up): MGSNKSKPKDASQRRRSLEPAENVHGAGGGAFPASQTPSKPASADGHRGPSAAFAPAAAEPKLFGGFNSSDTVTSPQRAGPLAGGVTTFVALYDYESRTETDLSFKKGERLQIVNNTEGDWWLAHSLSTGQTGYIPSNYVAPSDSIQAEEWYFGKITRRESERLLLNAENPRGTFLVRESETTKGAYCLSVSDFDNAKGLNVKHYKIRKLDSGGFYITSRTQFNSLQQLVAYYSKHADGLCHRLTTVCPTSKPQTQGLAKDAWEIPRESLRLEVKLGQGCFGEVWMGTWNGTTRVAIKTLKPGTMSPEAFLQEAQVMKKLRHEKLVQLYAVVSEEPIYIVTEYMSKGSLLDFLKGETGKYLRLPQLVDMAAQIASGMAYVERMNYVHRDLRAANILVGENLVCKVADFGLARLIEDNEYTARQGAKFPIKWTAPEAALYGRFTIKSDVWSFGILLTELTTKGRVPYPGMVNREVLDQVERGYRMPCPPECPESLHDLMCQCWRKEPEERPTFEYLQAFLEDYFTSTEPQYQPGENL

`CCN(CC)CCOc1ccc(Nc2cc3c(cn2)cc(-c2ccccc2)c(=O)n3CC)nc1` [Compound 1, 7-[5-(2-Diethylamino-ethoxy)-pyridin-2-ylamino]-1-ethyl-3-phenyl-1H-[1, 6]naphthyridin-2-one] was tested, and the “Percent Apoptosis DOHH2” value (DoHH2; 1 uM) was 4.43%, the “Percent Apoptosis DOHH2” value (DoHH2; 2 uM) was 29.84% and the “Percent Apoptosis DOHH2” value (DoHH2; 5 uM) was 21.76%. The “Percent Apoptosis DOHH2” value (DoHH2; 10 uM) was 37.52%, the “Percent Apoptosis at 2 uM” value (DoHH2; Table 6, DOHH2, 2 uM) was 26.2% and the “Percent Apoptosis at 5 uM” value (DoHH2; Table 6, DOHH2, 5 uM) was 32.58%. For the same compound, the inhibition at 0.3 µM ([1]; Homo sapiens, 0.3 uM, flow cytometry, anti-phospho PLCγ2 (Tyr759), read-out: pPLCγ % inhibition) was 63%, the EC50 ([1]; Homo sapiens, flow cytometry, anti-phospho PLCγ2 (Tyr1217), four concentrations, read-out: Inhibition of phosphorylation of PLC-γ2 EC50) was 380 nM and the “Inhibition of PLC-γ2 phosphorylation (flow cytometry)” value ([1]; increasing concentrations) was “dose dependent decrease in PLC-γ2 phosphorylation”. For the same compound, the PARP cleavage [2] was “induced the apoptotic pathway as shown by PARP cleavage”, the “Inhibition of PLCγ2 phosphorylation (Western blot)” value [3] was “dose dependent decrease in PLCγ2 phosphorylation” and the “Effect on tumor growth compared with 70 mg/kg PCI-32765” value (DoHH-2 tumor xenograft; 62.5 mg/kg) was “more marked effect”. The Mortality (DoHH-2 tumor xenograft; 62.5 mg/kg group, day 17) was 2 animals, the “Estimated maximal tolerated dose” value (DoHH-2 tumor xenograft; IP, SCID mice) was about 62.5 mg/kg/day and the Tumor growth inhibition (DoHH-2 tumor xenograft; highest dose 62.5 mg/kg/day IP, day 15, 19 and 21) was “significantly inhibited tumor growth”. The “Inhibition of phosphorylation of SFKs (Western blot)” value [4] was “dose-dependent decrease of phosphorylation of SFKs”, the “Percent Apoptosis PC3” value (PC3; 1 uM) was 7.86% and the “Percent Apoptosis PC3” value (PC3; 2 uM) was 6.5%. For the same compound, the “Percent Apoptosis PC3” value (PC3; 5 uM) was 11.74%, the “Percent Apoptosis PC3” value (PC3; 10 uM) was 6.35% and the “Percent Apoptosis Ramos” value (Ramos; 1 uM) was 35.71%. The “Percent Apoptosis Ramos” value (Ramos; 2 uM) was 38.94%, the “Percent Apoptosis Ramos” value (Ramos; 5 uM) was 39.09% and the “Percent Apoptosis Ramos” value (Ramos; 10 uM) was 51.63%.
In the case of `CCn1c(=O)c(-c2ccccc2)cc2cnc(Nc3ncc(CCN(C)C)s3)cc21` [Compound 2, 7-[5-(2-Dimethylamino-ethyl)-thiazol-2-ylamino]-1-ethyl-3-phenyl-1H-[1,6]naphthyridin-2-one], the IC50 (Src) is reported as over 5 µM.
